Like-named read-outs stand apart in the source and are kept apart here. Marks after values point to notes of the source that are not given here.
Test system: human osteosarcoma DM113
Format: in vivo
Description: The resultant solution contains 10 mg/mL of cabazitaxel. Stock solution of cabazitaxel was then diluted in 0.9% sodium chloride.
This efficacy may be quantified, for example, as changes in tumor volume for each treated (T) and control (C) group, which are calculated for each animal and each day by subtracting the tumor volume on the day of first treatment (staging day) from the tumor volume on the specified observation day. This allows calculating the tumor growth inhibition: ΔT/ΔC=(median delta T/median delta C)×100. Individual tumor volume changes from baseline are thereafter analyzed by a non-parametric two-way ANOVA-TYPE (with factors: group and repeated days) followed by a post-hoc contrasts analysis, with Bonferroni-Holm adjustment for multiplicity, comparing all treated groups to the control group. […] A probability less than 5% (p<0.05) was considered as significant.
Based on the National Cancer Institute (NCl) standards, a ΔT/ΔC≦40% is the minimal level required to declare activity.
This efficacy may also be quantified by the number of tumor regressions observed after therapy. Individual mice reporting a tumor volume ≦50% of the Day 0 measurement for two consecutive measurements over a seven day period were considered partial responders (PR). Individual mice lacking palpable tumors (<4×4 mm^2 for two consecutive measurements over a seven day period) were classified as complete responders (CR); a CR that persisted until study completion was considered a tumor-free survivor (TFS).
Efficacy could also be determined at study completion, using tumor growth delay (T-C) in days, which is calculated using the median time to endpoint (MTTE) value for each treatment (T) group versus control (C). A Log Rank multiple comparison test with Bonferroni-Holm adjustment for multiplicity was applied on individual TTE to compare the treated groups to the control group.
The animals subjected to the experiment are subcutaneously grafted unilaterally with approximately 30 mg of a tumor fragment from low passage pediatric patient-derived tumor xenografts. The animals are implanted with a human patient-derived pediatric tumor xenografted in immuno-compromised mice (Harlan; nu/nu). Several days post tumor implantation, mice are randomized according to their tumor burden to the different groups of treatments and controls. The agents are dosed intravenously at 5.8, 9.3, 15 or 24.2 mg/kg every 4 days for a total of 3 doses (q4d×3) to mice bearing a tumor burden at start of therapy (day 0) ranged from 125 to 250 mm^3.
Beginning Day 0, animals were observed daily and weighed twice weekly using a digital scale; data including individual and mean gram weights (Mean We±SD), mean percent weight change versus Day 0 were recorded for each group. Animal deaths were recorded daily and designated as drug-related (D), technical (T), tumor related (B), or unknown (U) based on weight loss and gross observation; single agent or combination groups reporting a mean >20% for a period of 7 days and/or >10% mortality were considered above the maximum tolerated dose (MTD) for that treatment on the evaluated regimen.
The selected tumor model, DM113, was a low passage patient-derived tumor xenograft derived from an osteosarcoma taken from the lung of a patient.
The following end points were used: • Toxicity was declared at dosages inducing ≧20% body weight loss or ≧10% drug death; • Antitumor efficacy was determined by calculating the ΔT/ΔC value in percent on day 28 post treatment initiation, according to the above mentioned formula; • Individual tumor volume changes from baseline were analyzed by a non-parametric two-way ANOVA-TYPE (with factors: group and repeated day from 3 to 28) followed by a post-hoc contrasts analysis, with Bonferroni-Holm adjustment for multiplicity, comparing all treated groups to the control group on day 28. […] The volume endpoint for T-C calculations was chosen to be 1600 mm^3.

[1] = 5.8 mg/kg i.v./q4dx3, volume endpoint 1600 mm^3
[2] = 9.3 mg/kg i.v./q4dx3, volume endpoint 1600 mm^3
[3] = 15 mg/kg i.v./q4dx3, volume endpoint 1600 mm^3
[4] = 24.2 mg/kg i.v./q4dx3, volume endpoint 1600 mm^3

Compound: CC(=O)O[C@@]12CO[C@@H]1C[C@H](O)[C@@]1(C)C(=O)[C@H](O)C3=C(C)[C@@H](OC(=O)[C@H](O)[C@@H](NC(=O)OC(C)(C)C)c4ccccc4)C[C@@](O)([C@@H](OC(=O)c4ccccc4)[C@H]21)C3(C)C [Docetaxel, docetaxel]
- #CR (5.8 mg/kg i.v./q4dx3): 0/0/0
- #PR (5.8 mg/kg i.v./q4dx3): 0/0/0
- #TFS (5.8 mg/kg i.v./q4dx3): 0/0/0
- Drug Deaths Total (5.8 mg/kg i.v./q4dx3): 0
- Weight Nadir % (5.8 mg/kg i.v./q4dx3): −2%
- Weight Nadir Day (5.8 mg/kg i.v./q4dx3): 3
- Tumor Volume Data (Day 28) Median (5.8 mg/kg i.v./q4dx3, day 28): 598 mm^3
- ΔT/ΔC % (5.8 mg/kg i.v./q4dx3, day 28): 42.9%
- MTTE [1]: 41 days
- T-C [1]: 9 days
- ΔT/ΔC (5.8 mg/kg q4d×3 IV, day 28): 42.9%
- tumor growth delay (T-C) (5.8 mg/kg q4d×3 IV, volume endpoint 1600 mm^3): 9 days
- tumor volume changes from baseline, Median +/− MAD (5.8 mg/kg, DAY 3): 22.5 +/− 22.5
- tumor volume changes from baseline, Median +/− MAD (5.8 mg/kg, DAY 8): 95 +/− 22.5
- tumor volume changes from baseline, Median +/− MAD (5.8 mg/kg, DAY 11): 117.5 +/− 45
- tumor volume changes from baseline, Median +/− MAD (5.8 mg/kg, DAY 14): 189 +/− 60.5
- tumor volume changes from baseline, Median +/− MAD (5.8 mg/kg, DAY 17): 242.5 +/− 110
- tumor volume changes from baseline, Median +/− MAD (5.8 mg/kg, DAY 21): 278.5 +/− 142
- tumor volume changes from baseline, Median +/− MAD (5.8 mg/kg, DAY 24): 435 +/− 159
- tumor volume changes from baseline, Median +/− MAD (5.8 mg/kg, DAY 28): 487 +/− 231.5
- tumor volume changes from baseline, Median +/− MAD (5.8 mg/kg, DAY 31): 598 +/− 204
- tumor volume changes from baseline, Median +/− MAD (5.8 mg/kg, DAY 35): 813 +/− 367
- tumor volume changes from baseline, Median +/− MAD (5.8 mg/kg, DAY 38): 960 +/− 388
- tumor volume changes from baseline, Median +/− MAD (5.8 mg/kg, DAY 42): 1032 +/− 326
- tumor volume changes from baseline, Median +/− MAD (5.8 mg/kg, DAY 46): 1340 +/− 384
- #CR (9.3 mg/kg i.v./q4dx3): 0
- #PR (9.3 mg/kg i.v./q4dx3): 1
- #TFS (9.3 mg/kg i.v./q4dx3): 0
- Drug Deaths Total (9.3 mg/kg i.v./q4dx3): 0*
- Weight Nadir % (9.3 mg/kg i.v./q4dx3): −3%
- Weight Nadir Day (9.3 mg/kg i.v./q4dx3): 17
- Tumor Volume Data (Day 28) Median (9.3 mg/kg i.v./q4dx3, day 28): 442 mm^3
- ΔT/ΔC % (9.3 mg/kg i.v./q4dx3, day 28): 27.4%
- MTTE [2]: 49 days
- T-C [2]: 17 days
- tumor volume changes from baseline, Median +/− MAD (9.3 mg/kg, DAY 3): 56.5 +/− 26.5
- tumor volume changes from baseline, Median +/− MAD (9.3 mg/kg, DAY 8): 85.5 +/− 27
- tumor volume changes from baseline, Median +/− MAD (9.3 mg/kg, DAY 11): 73 +/− 42.5
- tumor volume changes from baseline, Median +/− MAD (9.3 mg/kg, DAY 14): 85.5 +/− 34.5
- tumor volume changes from baseline, Median +/− MAD (9.3 mg/kg, DAY 17): 117.5 +/− 51.5
- tumor volume changes from baseline, Median +/− MAD (9.3 mg/kg, DAY 21): 140.5 +/− 52
- tumor volume changes from baseline, Median +/− MAD (9.3 mg/kg, DAY 24): 239 +/− 94.5
- tumor volume changes from baseline, Median +/− MAD (9.3 mg/kg, DAY 28): 311 +/− 75.5
- tumor volume changes from baseline, Median +/− MAD (9.3 mg/kg, DAY 31): 390 +/− 90.5
- tumor volume changes from baseline, Median +/− MAD (9.3 mg/kg, DAY 35): 545 +/− 52
- tumor volume changes from baseline, Median +/− MAD (9.3 mg/kg, DAY 38): 677 +/− 118
- tumor volume changes from baseline, Median +/− MAD (9.3 mg/kg, DAY 42): 827.5 +/− 293.5
- tumor volume changes from baseline, Median +/− MAD (9.3 mg/kg, DAY 46): 1187 +/− 347.5
- #CR (15 mg/kg i.v./q4dx3): 0/0/0
- #PR (15 mg/kg i.v./q4dx3): 0/0/0
- #TFS (15 mg/kg i.v./q4dx3): 0/0/0
- Drug Deaths Total (15 mg/kg i.v./q4dx3): 0
- Weight Nadir % (15 mg/kg i.v./q4dx3): −8%
- Weight Nadir Day (15 mg/kg i.v./q4dx3): 17
- Tumor Volume Data (Day 28) Median (15 mg/kg i.v./q4dx3, day 28): 178 mm^3
- ΔT/ΔC % (15 mg/kg i.v./q4dx3, day 28): 3.2%
- MTTE [3]: >59 days
- T-C [3]: >28 days
- numbers of PR (15 mg/kg q4d×3 IV): 0/10
- tumor volume changes from baseline, Median +/− MAD (15 mg/kg, DAY 3): 26 +/− 26
- tumor volume changes from baseline, Median +/− MAD (15 mg/kg, DAY 8): 26 +/− 26
- tumor volume changes from baseline, Median +/− MAD (15 mg/kg, DAY 11): 13 +/− 16.5
- tumor volume changes from baseline, Median +/− MAD (15 mg/kg, DAY 14): 13 +/− 16.5
- tumor volume changes from baseline, Median +/− MAD (15 mg/kg, DAY 17): 13 +/− 16.5
- tumor volume changes from baseline, Median +/− MAD (15 mg/kg, DAY 21): 0 +/− 19
- tumor volume changes from baseline, Median +/− MAD (15 mg/kg, DAY 24): 22.5 +/− 23.5
- tumor volume changes from baseline, Median +/− MAD (15 mg/kg, DAY 28): 36.5 +/− 35.5
- tumor volume changes from baseline, Median +/− MAD (15 mg/kg, DAY 31): 42.5 +/− 29.5
- tumor volume changes from baseline, Median +/− MAD (15 mg/kg, DAY 35): 61 +/− 61
- tumor volume changes from baseline, Median +/− MAD (15 mg/kg, DAY 38): 61 +/− 81
- tumor volume changes from baseline, Median +/− MAD (15 mg/kg, DAY 42): 107 +/− 90
- tumor volume changes from baseline, Median +/− MAD (15 mg/kg, DAY 46): 155 +/− 153
- #CR (24.2 mg/kg i.v./q4dx3): 0
- #PR (24.2 mg/kg i.v./q4dx3): 1
- #TFS (24.2 mg/kg i.v./q4dx3): 0
- Drug Deaths Total (24.2 mg/kg i.v./q4dx3): 0
- Weight Nadir % (24.2 mg/kg i.v./q4dx3): −13%
- Weight Nadir Day (24.2 mg/kg i.v./q4dx3): 17
- ΔT/ΔC % (24.2 mg/kg i.v./q4dx3, day 28): 0%
- MTTE [4]: >59 days
- T-C [4]: >28 days
- numbers of PR (24.2 mg/kg q4d×3 IV): 1/10
- tumor volume changes from baseline, Median +/− MAD (24.2 mg/kg, DAY 3): 29.5 +/− 13.5
- tumor volume changes from baseline, Median +/− MAD (24.2 mg/kg, DAY 8): 22.5 +/− 22.5
- tumor volume changes from baseline, Median +/− MAD (24.2 mg/kg, DAY 11): 0 +/− 22
- tumor volume changes from baseline, Median +/− MAD (24.2 mg/kg, DAY 14): −9.5 +/− 35
- tumor volume changes from baseline, Median +/− MAD (24.2 mg/kg, DAY 17): −9.5 +/− 26
- tumor volume changes from baseline, Median +/− MAD (24.2 mg/kg, DAY 21): −9.5 +/− 26
- tumor volume changes from baseline, Median +/− MAD (24.2 mg/kg, DAY 24): 0 +/− 0
- tumor volume changes from baseline, Median +/− MAD (24.2 mg/kg, DAY 28): 0 +/− 9.5
- tumor volume changes from baseline, Median +/− MAD (24.2 mg/kg, DAY 31): 0 +/− 9.5
- tumor volume changes from baseline, Median +/− MAD (24.2 mg/kg, DAY 35): 0 +/− 9.5
- tumor volume changes from baseline, Median +/− MAD (24.2 mg/kg, DAY 38): 0 +/− 9.5
- tumor volume changes from baseline, Median +/− MAD (24.2 mg/kg, DAY 42): 0 +/− 9.5
- tumor volume changes from baseline, Median +/− MAD (24.2 mg/kg, DAY 46): 50.5 +/− 47.5
